For 2 compounds, state of wound results are on record in US11771649B1, “Pharmaceutical lotion or salve utilizing mixed metal hydroxide antimicrobial charged particles” (Magalum LLC, priority 2021, dated 2023).

The subject of this experiment is methicillin resistant Staphylococcus aureus. In words: Example XXI: wound infected with methicillin resistant Staphylococcus aureus. The experiment is classed as in vivo, horse. The text has this: A 4 year old quarter horse mare had received a 4 inch cut on the chest from an encounter with a corral fence and had developed an infection. […] At that time, a specimen was taken from the wound and sent to a diagnostic lab for identification. Treatment of the wound was then started with silver sulfa diazole. When the results were returned from the diagnostic lab, the pathogen was identified as methicillin resistant Staphylococcus aureus. At that time, salve as described in Example 4 was applied to the wound, and then reapplied twice daily.

`NC(=O)N/N=C/c1ccc([N+](=O)[O-])o1` [nitrofurazone ointment, nitrofurazone]: the state of wound entry (prior treatment, after two days) is given as “no positive result”. On to penicillin, for which, for the setting “10,000 units per pound body weight injection, after 72 hours”, the state of wound result is “no improvement was again noted”.
